Source: patent US20230157952A1, “METHOD FOR IMPROVING THE STABILITY OF A PHARMACEUTICAL COMPOSITION COMPRISING A HIGH PENETRATION DRUG, AND THE PHARMACEUTICAL COMPOSITION OBTAINED THEREFROM” (Techfields Inc., priority 2020, published 2023)

Assay: Effect of solvent on the stability of the solution (purity at various pH values and temperature)
Type: physicochemical
Conditions: 7% solution

SMILES: CCN(CC)CCOC(=O)c1ccccc1OC(C)=O.Cl
- Purity (%) at day 14 (60° C.) (solvent 25% ethanol, pH 8.0, day 14, 60° C.): 0%
- Purity(%) at day 0 (solvent 50% ethanol, pH 1.0, day 0): 99.2 ± 0.3%
- Purity(%) at day 14 (5° C.) (solvent 50% ethanol, pH 1.0, day 14, 5° C.): 92.4 ± 0.3%
- Purity(%) at day 14 (25° C.) (solvent 50% ethanol, pH 1.0, day 14, 25° C.): 63.8 ± 0.4%
- Purity(%) at day 14 (40° C.) (solvent 50% ethanol, pH 1.0, day 14, 40° C.): 0%
- Purity (%) at day 14 (60° C.) (solvent 50% ethanol, pH 1.0, day 14, 60° C.): 0%
- Purity(%) at day 0 (solvent 50% ethanol, pH 2.0, day 0): 99.5 ± 0.2%
- Purity(%) at day 14 (5° C.) (solvent 50% ethanol, pH 2.0, day 14, 5° C.): 96.9 ± 0.3%
- Purity(%) at day 14 (25° C.) (solvent 50% ethanol, pH 2.0, day 14, 25° C.): 84.7 ± 0.3%
- Purity(%) at day 14 (40° C.) (solvent 50% ethanol, pH 2.0, day 14, 40° C.): 0%
- Purity (%) at day 14 (60° C.) (solvent 50% ethanol, pH 2.0, day 14, 60° C.): 0%
- Purity(%) at day 0 (solvent 50% ethanol, pH 3.0, day 0): 99.6 ± 0.3%
- Purity(%) at day 14 (25° C.) (solvent 50% ethanol, pH 3.0, day 14, 25° C.): 89.5 ± 0.3%
- Purity(%) at day 14 (40° C.) (solvent 50% ethanol, pH 3.0, day 14, 40° C.): 3.2 ± 0.3%
- Purity (%) at day 14 (60° C.) (solvent 50% ethanol, pH 3.0, day 14, 60° C.): 0%
- Purity(%) at day 0 (solvent 50% ethanol, pH 3.7, day 0): 99.7 ± 0.2%
- Purity(%) at day 14 (5° C.) (solvent 50% ethanol, pH 3.7, day 14, 5° C.): 99.1 ± 0.3%
- Purity(%) at day 14 (25° C.) (solvent 50% ethanol, pH 3.7, day 14, 25° C.): 96.6 ± 0.2%
- Purity(%) at day 14 (40° C.) (solvent 50% ethanol, pH 3.7, day 14, 40° C.): 16.9 ± 0.3%
- Purity (%) at day 14 (60° C.) (solvent 50% ethanol, pH 3.7, day 14, 60° C.): 0%
- Purity(%) at day 0 (solvent 50% ethanol, pH 4.0, day 0): 99.8 ± 0.2%
- Purity(%) at day 14 (5° C.) (solvent 50% ethanol, pH 4.0, day 14, 5° C.): 99.2 ± 0.3%
- Purity(%) at day 14 (25° C.) (solvent 50% ethanol, pH 4.0, day 14, 25° C.): 97.2 ± 0.3%
- Purity(%) at day 14 (40° C.) (solvent 50% ethanol, pH 4.0, day 14, 40° C.): 16.8 ± 0.4%
- Purity (%) at day 14 (60° C.) (solvent 50% ethanol, pH 4.0, day 14, 60° C.): 0%
- Purity(%) at day 0 (solvent 50% ethanol, pH 4.3, day 0): 99.7 ± 0.2%
- Purity(%) at day 14 (5° C.) (solvent 50% ethanol, pH 4.3, day 14, 5° C.): 99.1 ± 0.2%
- Purity(%) at day 14 (25° C.) (solvent 50% ethanol, pH 4.3, day 14, 25° C.): 97.2 ± 0.2%
- Purity(%) at day 14 (40° C.) (solvent 50% ethanol, pH 4.3, day 14, 40° C.): 14.9 ± 0.3%
- Purity (%) at day 14 (60° C.) (solvent 50% ethanol, pH 4.3, day 14, 60° C.): 0%
- Purity(%) at day 0 (solvent 50% ethanol, pH 4.6, day 0): 99.7 ± 0.3%
- Purity(%) at day 14 (25° C.) (solvent 50% ethanol, pH 4.6, day 14, 25° C.): 96.9 ± 0.3%
- Purity(%) at day 14 (40° C.) (solvent 50% ethanol, pH 4.6, day 14, 40° C.): 4.9 ± 0.3%
- Purity (%) at day 14 (60° C.) (solvent 50% ethanol, pH 4.6, day 14, 60° C.): 0%
- Purity(%) at day 0 (solvent 50% ethanol, pH 5.0, day 0): 99.6 ± 0.2%
- Purity(%) at day 14 (25° C.) (solvent 50% ethanol, pH 5.0, day 14, 25° C.): 93.1 ± 0.3%
- Purity(%) at day 14 (40° C.) (solvent 50% ethanol, pH 5.0, day 14, 40° C.): 2.3 ± 0.2%
- Purity (%) at day 14 (60° C.) (solvent 50% ethanol, pH 5.0, day 14, 60° C.): 0%
- Purity(%) at day 0 (solvent 50% ethanol, pH 6.0, day 0): 99.5 ± 0.3%
- Purity(%) at day 14 (5° C.) (solvent 50% ethanol, pH 6.0, day 14, 5° C.): 92.9 ± 0.4%
- Purity(%) at day 14 (25° C.) (solvent 50% ethanol, pH 6.0, day 14, 25° C.): 85.5 ± 0.3%
- Purity(%) at day 14 (40° C.) (solvent 50% ethanol, pH 6.0, day 14, 40° C.): 0%
- Purity (%) at day 14 (60° C.) (solvent 50% ethanol, pH 6.0, day 14, 60° C.): 0%
- Purity(%) at day 0 (solvent 50% ethanol, pH 7.0, day 0): 99.4 ± 0.3%
- Purity(%) at day 14 (5° C.) (solvent 50% ethanol, pH 7.0, day 14, 5° C.): 88.2 ± 0.3%
- Purity(%) at day 14 (25° C.) (solvent 50% ethanol, pH 7.0, day 14, 25° C.): 61.9 ± 0.4%
- Purity(%) at day 14 (40° C.) (solvent 50% ethanol, pH 7.0, day 14, 40° C.): 0%
- Purity (%) at day 14 (60° C.) (solvent 50% ethanol, pH 7.0, day 14, 60° C.): 0%
- Purity(%) at day 0 (solvent 50% ethanol, pH 8.0, day 0): 99.2 ± 0.3%
- Purity(%) at day 14 (5° C.) (solvent 50% ethanol, pH 8.0, day 14, 5° C.): 60.3 ± 0.4%
- Purity(%) at day 14 (25° C.) (solvent 50% ethanol, pH 8.0, day 14, 25° C.): 23.9 ± 0.4%
- Purity(%) at day 14 (40° C.) (solvent 50% ethanol, pH 8.0, day 14, 40° C.): 0%
- Purity (%) at day 14 (60° C.) (solvent 50% ethanol, pH 8.0, day 14, 60° C.): 0%
- Purity(%) at day 0 (solvent water, pH 1.0, day 0): 99.1 ± 0.3%
- Purity(%) at day 14 (5° C.) (solvent water, pH 1.0, day 14, 5° C.): 90.8 ± 0.3%
- Purity(%) at day 14 (25° C.) (solvent water, pH 1.0, day 14, 25° C.): 62.2 ± 0.4%
- Purity(%) at day 14 (40° C.) (solvent water, pH 1.0, day 14, 40° C.): 0%
- Purity (%) at day 14 (60° C.) (solvent water, pH 1.0, day 14, 60° C.): 0%
- Purity(%) at day 0 (solvent water, pH 2.0, day 0): 99.3 ± 0.2%
- Purity(%) at day 14 (5° C.) (solvent water, pH 2.0, day 14, 5° C.): 96.3 ± 0.2%
- Purity(%) at day 14 (25° C.) (solvent water, pH 2.0, day 14, 25° C.): 83.3 ± 0.3%
- Purity(%) at day 14 (40° C.) (solvent water, pH 2.0, day 14, 40° C.): 0%
- Purity (%) at day 14 (60° C.) (solvent water, pH 2.0, day 14, 60° C.): 0%
- Purity(%) at day 0 (solvent water, pH 3.0, day 0): 99.5 ± 0.2%
- Purity(%) at day 14 (25° C.) (solvent water, pH 3.0, day 14, 25° C.): 88.5 ± 0.2%
- Purity(%) at day 14 (40° C.) (solvent water, pH 3.0, day 14, 40° C.): 2.5 ± 0.2%
- Purity (%) at day 14 (60° C.) (solvent water, pH 3.0, day 14, 60° C.): 0%
- Purity(%) at day 0 (solvent water, pH 3.7, day 0): 99.5 ± 0.1%
- Purity(%) at day 14 (25° C.) (solvent water, pH 3.7, day 14, 25° C.): 96.1 ± 0.1%
- Purity(%) at day 14 (40° C.) (solvent water, pH 3.7, day 14, 40° C.): 14.5 ± 0.3%
- Purity (%) at day 14 (60° C.) (solvent water, pH 3.7, day 14, 60° C.): 0%
- Purity(%) at day 0 (solvent water, pH 4.0, day 0): 99.6 ± 0.1%
- Purity(%) at day 14 (25° C.) (solvent water, pH 4.0, day 14, 25° C.): 96.6 ± 0.2%
- Purity(%) at day 14 (40° C.) (solvent water, pH 4.0, day 14, 40° C.): 14.5 ± 0.3%
- Purity (%) at day 14 (60° C.) (solvent water, pH 4.0, day 14, 60° C.): 0%
- Purity(%) at day 0 (solvent water, pH 4.3, day 0): 99.7 ± 0.1%
- Purity(%) at day 14 (25° C.) (solvent water, pH 4.3, day 14, 25° C.): 96.6 ± 0.1%
- Purity(%) at day 14 (40° C.) (solvent water, pH 4.3, day 14, 40° C.): 12.9 ± 0.2%
- Purity (%) at day 14 (60° C.) (solvent water, pH 4.3, day 14, 60° C.): 0%
- Purity(%) at day 0 (solvent water, pH 4.6, day 0): 99.5 ± 0.2%
- Purity(%) at day 14 (25° C.) (solvent water, pH 4.6, day 14, 25° C.): 96.5 ± 0.2%
- Purity(%) at day 14 (40° C.) (solvent water, pH 4.6, day 14, 40° C.): 3.6 ± 0.2%
- Purity (%) at day 14 (60° C.) (solvent water, pH 4.6, day 14, 60° C.): 0%
- Purity(%) at day 0 (solvent water, pH 5.0, day 0): 99.5 ± 0.1%
- Purity(%) at day 14 (5° C.) (solvent water, pH 5.0, day 14, 5° C.): 97.3 ± 0.1%
- Purity(%) at day 14 (25° C.) (solvent water, pH 5.0, day 14, 25° C.): 92.5 ± 0.2%
- Purity(%) at day 14 (40° C.) (solvent water, pH 5.0, day 14, 40° C.): 1.0%
- Purity (%) at day 14 (60° C.) (solvent water, pH 5.0, day 14, 60° C.): 0%
- Purity(%) at day 0 (solvent water, pH 6.0, day 0): 99.4 ± 0.3%
- Purity(%) at day 14 (5° C.) (solvent water, pH 6.0, day 14, 5° C.): 92.1 ± 0.2%
- Purity(%) at day 14 (25° C.) (solvent water, pH 6.0, day 14, 25° C.): 84.7 ± 0.3%
- Purity(%) at day 14 (40° C.) (solvent water, pH 6.0, day 14, 40° C.): 0%
- Purity (%) at day 14 (60° C.) (solvent water, pH 6.0, day 14, 60° C.): 0%
- Purity(%) at day 0 (solvent water, pH 7.0, day 0): 99.2 ± 0.3%
- Purity(%) at day 14 (5° C.) (solvent water, pH 7.0, day 14, 5° C.): 87.9 ± 0.3%
- Purity(%) at day 14 (25° C.) (solvent water, pH 7.0, day 14, 25° C.): 59.8 ± 0.3%
- Purity(%) at day 14 (40° C.) (solvent water, pH 7.0, day 14, 40° C.): 0%
- Purity (%) at day 14 (60° C.) (solvent water, pH 7.0, day 14, 60° C.): 0%
- Purity(%) at day 14 (5° C.) (solvent water, pH 8.0, day 14, 5° C.): 57.9 ± 0.3%
- Purity(%) at day 14 (25° C.) (solvent water, pH 8.0, day 14, 25° C.): 21.7 ± 0.4%
- Purity(%) at day 14 (40° C.) (solvent water, pH 8.0, day 14, 40° C.): 0%
- Purity (%) at day 14 (60° C.) (solvent water, pH 8.0, day 14, 60° C.): 0%
